Measurements published in patent publication US20250368647A1, “NITROGEN CONTAINING CONDENSED 2,3-DIHYDROQUINAZOLINONE COMPOUNDS AS NAV1.8 INHIBITORS” (GLAXOSMITHKLINE INTELLECTUAL PROPERTY DEVELOPMENT LIMITED, priority 2022, published 2025).
Structures can show the parent of a compound that is named as a salt.

Target: human Nav1.8 (Homo sapiens (Human), UniProt Q9Y5Y9)
Assay: QPatch 48 HTX voltage-clamp electrophysiology, half inactivation state (V1/2) protocol, HEK293-Nav1.8 cells
Type: cell-based
Settings: HEK293 cells expressing human Nav1.8, human Navβ1 and human TREK1, P2 current
Method in brief: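 HEK293 cells co-expressing Navβ1 and TREK1 were voltage-clamped from −100 mV: a 20 ms step to 0 mV, 8 s inactivation at −46 mV, 20 ms at −100 mV, then a 20 ms P2 test step to 0 mV, repeated every 15 s. P2 current was normalized to vehicle and full block, corrected for run-down, and Hill-fitted (4–6 concentrations) for IC50.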

human Nav1.8, sequence (Q9Y5Y9 whole entry): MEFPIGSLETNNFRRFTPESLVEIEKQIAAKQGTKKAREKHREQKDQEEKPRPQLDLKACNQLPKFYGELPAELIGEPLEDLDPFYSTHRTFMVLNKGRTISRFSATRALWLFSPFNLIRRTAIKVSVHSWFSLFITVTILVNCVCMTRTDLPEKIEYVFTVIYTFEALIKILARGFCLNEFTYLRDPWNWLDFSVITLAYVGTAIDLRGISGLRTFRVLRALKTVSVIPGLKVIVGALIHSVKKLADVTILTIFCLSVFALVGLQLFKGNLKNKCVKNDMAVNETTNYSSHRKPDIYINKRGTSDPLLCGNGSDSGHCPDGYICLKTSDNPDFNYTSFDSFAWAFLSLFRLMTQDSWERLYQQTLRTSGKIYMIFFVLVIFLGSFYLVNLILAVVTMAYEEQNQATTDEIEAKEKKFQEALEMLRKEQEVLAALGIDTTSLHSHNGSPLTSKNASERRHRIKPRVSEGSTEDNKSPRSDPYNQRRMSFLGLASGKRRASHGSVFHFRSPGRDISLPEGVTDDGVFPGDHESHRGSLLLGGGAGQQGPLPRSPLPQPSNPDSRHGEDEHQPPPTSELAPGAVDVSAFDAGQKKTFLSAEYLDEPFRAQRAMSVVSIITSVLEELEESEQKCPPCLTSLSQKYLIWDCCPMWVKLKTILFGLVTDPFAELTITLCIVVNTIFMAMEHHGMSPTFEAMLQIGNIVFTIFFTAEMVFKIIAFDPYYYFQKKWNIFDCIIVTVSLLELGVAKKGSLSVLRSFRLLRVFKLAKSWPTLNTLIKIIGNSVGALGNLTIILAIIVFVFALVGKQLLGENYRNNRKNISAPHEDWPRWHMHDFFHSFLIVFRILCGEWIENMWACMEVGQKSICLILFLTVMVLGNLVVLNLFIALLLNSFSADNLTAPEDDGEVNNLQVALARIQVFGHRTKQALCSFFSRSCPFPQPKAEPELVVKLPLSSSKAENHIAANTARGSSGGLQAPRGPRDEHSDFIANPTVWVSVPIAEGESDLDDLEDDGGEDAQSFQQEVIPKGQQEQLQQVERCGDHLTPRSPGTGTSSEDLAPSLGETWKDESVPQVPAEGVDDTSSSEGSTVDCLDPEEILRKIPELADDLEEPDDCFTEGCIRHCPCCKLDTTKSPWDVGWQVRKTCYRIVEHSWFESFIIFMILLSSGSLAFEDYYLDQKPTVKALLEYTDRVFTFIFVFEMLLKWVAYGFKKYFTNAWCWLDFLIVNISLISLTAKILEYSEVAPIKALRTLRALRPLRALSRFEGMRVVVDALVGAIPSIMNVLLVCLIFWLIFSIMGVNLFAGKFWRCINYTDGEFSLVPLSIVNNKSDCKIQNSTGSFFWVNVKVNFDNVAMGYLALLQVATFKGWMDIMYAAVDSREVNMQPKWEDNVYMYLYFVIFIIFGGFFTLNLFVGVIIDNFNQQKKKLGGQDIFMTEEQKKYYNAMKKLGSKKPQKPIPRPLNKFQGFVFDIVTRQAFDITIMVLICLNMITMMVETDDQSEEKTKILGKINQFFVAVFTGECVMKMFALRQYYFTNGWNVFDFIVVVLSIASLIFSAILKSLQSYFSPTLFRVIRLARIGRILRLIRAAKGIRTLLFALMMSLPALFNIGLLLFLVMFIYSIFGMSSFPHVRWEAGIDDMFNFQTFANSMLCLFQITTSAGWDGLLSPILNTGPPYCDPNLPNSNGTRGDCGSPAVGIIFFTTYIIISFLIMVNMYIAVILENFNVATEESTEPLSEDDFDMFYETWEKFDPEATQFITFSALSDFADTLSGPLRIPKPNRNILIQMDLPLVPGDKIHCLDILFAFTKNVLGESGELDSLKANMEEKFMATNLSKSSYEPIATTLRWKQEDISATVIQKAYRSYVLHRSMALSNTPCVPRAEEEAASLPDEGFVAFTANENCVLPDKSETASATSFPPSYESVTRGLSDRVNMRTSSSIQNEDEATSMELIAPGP
human Nav1.8, sequence (Q07699 19-218 partner): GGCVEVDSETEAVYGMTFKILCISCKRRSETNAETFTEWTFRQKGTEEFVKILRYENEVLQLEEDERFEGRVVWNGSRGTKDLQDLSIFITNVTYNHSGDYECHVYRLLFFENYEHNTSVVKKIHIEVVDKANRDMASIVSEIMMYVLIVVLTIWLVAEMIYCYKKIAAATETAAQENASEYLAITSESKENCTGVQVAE

Nav1.8, pIC50	SMILES
5.5	O=C1c2cc(F)c(F)cc2N2CN1c1ccc(=O)[nH]c1CCNCc1c2ccc(F)c1O.O=CO [Example 84, 2,3,8-Trifluoro-9-hydroxy-10,11,12,13-tetrahydro-19H-5,18-methanodibenzo-[c,f]pyrido[3,2-j][1,5,9]triazacyclotridecine-15,19(14H)-dione, formic acid salt]
6.4	Cl.O=C1c2cc(F)c(C(F)(F)F)cc2N2CN1c1ccc(=O)[nH]c1CCNCc1c2ccc(F)c1O [Example 85, 2,8-Difluoro-9-hydroxy-3-(trifluoromethyl)-10,11,12,13-tetrahydro-19H-5,18-methanodibenzo[c,f]pyrido[3,2-i][1,5,9]triazacyclotridecine-15,19(14H)-dione hydrochloride]
7.9	O=C1c2cc(F)c(F)cc2N2CN1c1ccc(=O)[nH]c1NCCCc1cc(F)ccc12 [Example 91, 2,3,8-Trifluoro-10,11,12,13-tetrahydro-19H-5,18-methanodibenzo[f,i]pyrido[2,3-b]-[1,4,8]triazacyclotridecine-15,19(14H)-dione]
8.1	O=C1c2cc(F)c(Cl)cc2N2CN1c1ccc(=O)[nH]c1NCCCc1cc(F)ccc12 [Example 93, 3-Chloro-2,8-difluoro-10,11,12,13-tetrahydro-19H-5,18-methanodibenzo[f,i]pyrido[2,3-b]-[1,4,8]triazacyclotridecine-15,19(14H)-dione]
7.5	O=C1c2cc(Cl)c(F)cc2N2CN1c1ccc(=O)[nH]c1NCCCc1cc(F)ccc12 [Example 96, 2-Chloro-3,8-difluoro-10,11,12,13-tetrahydro-19H-5,18-methanodibenzo[f,i]pyrido[2,3-b]-[1,4,8]triazacyclotridecine-15,19(14H)-dione]
7.6	O=C1c2c(ccc(C(F)(F)F)c2F)N2CN1c1ccc(=O)[nH]c1NCCCc1c2ccc(F)c1F [Example 97, 1,8,9-Trifluoro-2-(trifluoromethyl)-10,11,12,13-tetrahydro-19H-5,18-methanodibenzo[f,i]pyrido-[2,3-b][1,4,8]triazacyclotridecine-15,19(14H)-dione]
6.9	O=C1c2cc(C(F)(F)F)ccc2N2CN1c1ccc(=O)[nH]c1CNCCCc1cc(F)ccc12 [Example 104, 3^4-Fluoro-2^6-(trifluoromethyl)-1^1,1^2,2^1,2^2,2^3,2^4-hexahydro-7-aza-2(3,1)quinazolina-1(5,6)-pyridina-3(1,2)-benzenacyclooctaphane-1^2,2^4-dione]
7.8	Cl.O=C1c2cc(F)c(C(F)(F)F)cc2N2CN1c1ccc(=O)[nH]c1CNCCCc1cc(F)ccc12 [Example 105, 2^6,3^4-Difluoro-2^7-(trifluoromethyl)-1^1,1^2,2^1,2^2,2^3,2^4-hexahydro-7-aza-2(3,1)-quinazolina-1(5,6)-pyridina-3(1,2)-benzenacyclooctaphane-1^2,2^4-dione hydrochloride]

The next lines start with the compound.

SMILES	Nav1.8, pIC50
Cl.N#Cc1c(F)ccc2c1CNCCc1[nH]c(=O)ccc1N1CN2c2cc(C(F)(F)F)c(F)cc2C1=O [Example 82, 2,8-Difluoro-15,19-dioxo-3-(trifluoromethyl)-10,11,12,13,14,15-hexahydro-19H-5,18-methanodibenzo[c,f]pyrido[3,2-j][1,5,9]triazacyclotridecine-9-carbonitrile hydrochloride]	7.9
N#Cc1c(F)ccc2c1CNCCc1[nH]c(=O)ccc1N1CN2c2cc(F)c(F)cc2C1=O [Example 83, 2,3,8-Trifluoro-15,19-dioxo-10,11,12,13,14,15-hexahydro-19H-5,18-methano-dibenzo[c,f]pyrido[3,2-j][1,5,9]triazacyclotridecine-9-carbonitrile]	6.8
Cl.O=C1c2cc(F)c(F)cc2N2CN1c1ccc(=O)[nH]c1CCNCc1cc(OC(F)(F)F)ccc12 [Example 86, 2,3-Difluoro-8-(trifluoromethoxy)-10,11,12,13-tetrahydro-19H-5,18-methanodibenzo[c,f]pyrido[3,2-j][1,5,9]triazacyclotridecine-15,19(14H)-dione hydrochloride]	7.5
Cl.O=C1c2cc(F)c(F)cc2N2CN1c1ccc(=O)[nH]c1CCNCc1c2ccc(OC(F)(F)F)c1F [Example 87, 2,3,9-Trifluoro-8-(trifluoromethoxy)-10,11,12,13-tetrahydro-19H-5,18-methanodibenzo[c,f]pyrido[3,2-j][1,5,9]triazacyclotridecine-15,19(14H)-dione hydrochloride]	7.9
Cl.N#Cc1cc2c(cc1F)C(=O)N1CN2c2ccc(OC(F)(F)F)cc2CNCCc2[nH]c(=O)ccc21 [Example 88, 2-Fluoro-15,19-dioxo-8-(trifluoromethoxy)-10,11,12,13,14,15-hexahydro-19H-5,18-methanodibenzo[c,f]pyrido[3,2-j][1,5,9]triazacyclotridecine-3-carbonitrile hydrochloride]	7.7
Cl.N#Cc1cc2c(cc1F)C(=O)N1CN2c2ccc(OC(F)(F)F)c(F)c2CNCCc2[nH]c(=O)ccc21 [Example 89, 2,9-Difluoro-15,19-dioxo-8-(trifluoromethoxy)-10,11,12,13,14,15-hexahydro-19H-5,18-methanodibenzo[c,f]pyrido[3,2-j][1,5,9]triazacyclotridecine-3-carbonitrile hydrochloride]	8.1
O=C1c2cc(C(F)(F)F)c(F)cc2N2CN1c1ccc(=O)[nH]c1NCCCc1cc(F)ccc12 [Example 90, 3,8-Difluoro-2-(trifluoromethyl)-10,11,12,13-tetrahydro-19H-5,18-methanodibenzo[f,i]-pyrido[2,3-b][1,4,8]triazacyclotridecine-15,19(14H)-dione]	7.7
O=C1c2cc(F)c(C(F)(F)F)cc2N2CN1c1ccc(=O)[nH]c1NCCCc1c2ccc(F)c1F [Example 92, 2,8,9-Trifluoro-3-(trifluoromethyl)-10,11,12,13-tetrahydro-19H-5,18-methano-dibenzo[f,i]pyrido[2,3-b][1,4,8]triazacyclotridecine-15,19(14H)-dione, methanesulfonic acid salt]	8.4
O=C1c2cc(F)c(Cl)cc2N2CN1c1ccc(=O)[nH]c1NCCCc1c2ccc(F)c1F [Example 94, 3-Chloro-2,8,9-trifluoro-10,11,12,13-tetrahydro-19H-5,18-methanodibenzo[f,i]pyrido[2,3-b][1,4,8]triazacyclotridecine-15,19(14H)-dione]	8.1
N#Cc1cc2c(cc1F)C(=O)N1CN2c2ccc(F)cc2CCCNc2[nH]c(=O)ccc21 [Example 95, 2,8-Difluoro-15,19-dioxo-10,11,12,13,14,15-hexahydro-19H-5,18-methanodibenzo[f,i]pyrido-[2,3-b][1,4,8]triazacyclotridecine-3-carbonitrile]	7.5
O=C1c2cc(F)c(F)cc2N2CN1c1ccc(=O)[nH]c1NCCCc1c2ccc(F)c1F [Example 98, 2,3,8,9-Tetrafluoro-10,11,12,13-tetrahydro-19H-5,18-methanodibenzo[f,i]pyrido[2,3-b]-[1,4,8]triazacyclotridecine-15,19(14H)-dione, formic acid salt]	7.6
N#Cc1cc2c(cc1F)C(=O)N1CN2c2ccc(F)c(F)c2CCCNc2[nH]c(=O)ccc21 [Example 99, 2,8,9-Trifluoro-15,19-dioxo-10,11,12,13,14,15-hexahydro-19H-5,18-methano-dibenzo [f,i]pyrido[2,3-b][1,4,8]triazacyclotridecine-3-carbonitrile]	7.7
Cl.N#Cc1cc2c(cc1Cl)C(=O)N1CN2c2ccc(F)cc2CCCNc2[nH]c(=O)ccc21 [Example 100, 2-Chloro-8-fluoro-15,19-dioxo-10,11,12,13,14,15-hexahydro-19H-5,18-methano-dibenzo[f,i]pyrido[2,3-b][1,4,8]triazacyclotridecine-3-carbonitrile, hydrochloride]	7.5
Cl.O=C1c2cc(Cl)c(F)cc2N2CN1c1ccc(=O)[nH]c1NCCCc1c2ccc(F)c1F [Example 101, 2-Chloro-3,8,9-trifluoro-10,11,12,13-tetrahydro-19H-5,18-methanodibenzo[f,i]pyrido[2,3-b]-[1,4,8]triazacyclotridecine-15,19(14H)-dione, hydrochloride]	7.8
O=C1c2cc(F)c(C(F)(F)F)cc2N2CN1c1ccc(=O)[nH]c1CNCCc1cc(F)ccc12 [Example 102, 2,8-Difluoro-3-(trifluoromethyl)-10,11,12,13-tetrahydro-19H-5,18-methanodibenzo[b,l]pyrido[3,2-f][1,5,9]triazacyclotridecine-15,19(14H)-dione]	7.1
O=C1c2cc(C(F)(F)F)ccc2N2CN1c1ccc(=O)[nH]c1CNCCc1cc(F)ccc12 [Example 103, 8-Fluoro-2-(trifluoromethyl)-10,11,12,13-tetrahydro-19H-5,18-methanodibenzo[b,l]pyrido[3,2-f][1,5,9]triazacyclotridecine-15,19(14H)-dione]	6.4
Cl.O=C1c2cc(F)c(C(F)(F)F)cc2N2CN1c1ccc(=O)[nH]c1CNCCCc1c2ccc(F)c1F [Example 106, 2^6,3^3,3^4-Trifluoro-2^7-(trifluoromethyl)-1^1,1^2,2^1,2^2,2^3,2^4-hexahydro-7-aza-2(3,1)-quinazolina-1(5,6)-pyridina-3(1,2)-benzenacyclooctaphane-1^2,2^4-dione hydrochloride]	8.1
Cl.O=C1c2cc(F)c(C(F)(F)F)cc2N2CN1c1ccc(=O)[nH]c1CCCNCc1cc(F)ccc12 [Example 107, 2^6,3^4-Difluoro-2^7-(trifluoromethyl)-1^1,1^2,2^1,2^2,2^3,2^4-hexahydro-5-aza-2(3,1)-quinazolina-1(5,6)-pyridina-3(1,2)-benzenacyclooctaphane-1^2,2^4-dione hydrochloride]	7.3
